Where a name gives a salt, the structure may show the parent alone.
How the values were obtained:
[1] = target: CYP2D6 (Homo sapiens (Human), UniProt P10635); test: Inhibition of Cytochrome P4502D6 (CYP2D6) using Supersomes; type: in vitro ADME; conditions: AMMC substrate, read-out: IC50 (Fluorinated derivative)
Protocol: The inhibition of Cytochrome P4502D6 (CYP2D6) is assessed by performing in vitro inhibition studies using Supersomes, microsomes derived from baculovirus infected insect cells; the baculoviruses are engineered to express one or more drug metabolizing enzyme cDNAs. Supersomes catalyze the same enzymatic reactions as human liver microsome enzymes, but they contain much higher enzyme activity than other microsome sources (Crespi C. L. and Penman B. W., Advances Pharmacology, 43, 171-188 (1997); Crespi C. L. and Miller V. P., Analytical Biochemistry, 248, 188-190 (1997)).
Kits with Supersomes are Supplied by GENTEST (MA, USA).
Test compound is dissolved in DMSO 500× the highest final concentration desired in the IC50 assay. 30 ml of deionized water is pre-warmed to 37° C. and all kit components are placed on ice. For each well of column 1, 149.4 μL of NADPH-Cofactor Mix, (187.5 μl of Cofactors, 150 μl of G6PDH, 100 μl of Control Protein and 14.56 ml of 37° C. water) are added.
In each well from Column 2 to 12, 100 μl of Cofactor/DMSO mix (40 μL DMSO in 9.96 ml of NADPH-Cofactor Mix) are added. To each well of column 1, 0.6 μl of test compound or positive control are added. 50 μl from each well of column 1 are serially diluted to column 8. The extra 50 μl from column 8 are discarded. The plate is covered and pre-incubated at 37° C. for 10 minutes.
Preparation of enzyme/substrate mix: 7.92 ml of pre-warmed deionized water, 75 μl of enzyme, 3 μl of 10 mM AMMC and 2 ml of pre-warmed buffer are mixed.
After the pre-incubation time (10′), 100 μl of enzyme/substrate mix to each well from column 1 to 10 are added. The plate is incubated at 37° C. for 30 minutes. After this time, 75 μl of Stop Reagent to each well are added. For blank controls, 100 μl of enzyme/substrate mix are added to columns 11 and 12.
Plates are read at the Victor plate reader (Perkin Elmer, MA—USA) at 390 nm excitation and 460 nm emission wavelengths.

[2] = test system: TTXs sodium channels (ND7/23 cells); test: TTXs-sodium channel influx assay (fluorescence, membrane potential kit); type: cell-based, rat; conditions: veratridine 100 μM
Protocol: ND7/23 rat dorsal root ganglion-derived cell line endogenously expresses a mixed population of TTXs sodium channels (such as Nav1.3, Nav1.2, Nav1.1, Nav1.6). These cells lack of TTXr sodium channels as shown by the absence of their respective transcripts. ND7/23 cells are grown in Dulbecco's Modified Eagle Medium (DMEM, Invitrogen, CA—USA) supplemented with 10% Foetal Bovine Serum (FBS, Invitrogen, CA—USA) and 1 mM sodium piruvate. The cells are seeded at 50,000 cells/well on 96 poly-L-lysine-coated plates and further incubated for 18-24 h before use.
The Membrane Potential Kit Assay (Molecular Devices, CA—USA), based on a negatively charged fluorescent dye able to monitor changes in membrane potential caused by the sodium influx due to the channel opening, is used for the assay.
Cells are incubated with the dye loading for 30 minutes at 25° C. Then, 100 nM of the toxin Anemonia sulcata (used as enhancer of the channel opener response) alone or in the presence of TTX (as reference standard) or test compound are added for further 15 minutes.
The fluorescence (excitation: 530 nm, emission: 565 nm wavelength) is measured before and after (40-45 s) the automated injection of the sodium channel opener veratridine (100 μM) using a Victor plate reader (Perkin Elmer, MA—USA).
The inhibition curves are calculated from 5 concentrations, each in triplicate, and the IC50 determined using a linear regression analysis.
The results, obtained with some compounds which are representative of the entire class of compounds of the invention are reported in Table 1.

Sequence of CYP2D6 (P10635 whole entry): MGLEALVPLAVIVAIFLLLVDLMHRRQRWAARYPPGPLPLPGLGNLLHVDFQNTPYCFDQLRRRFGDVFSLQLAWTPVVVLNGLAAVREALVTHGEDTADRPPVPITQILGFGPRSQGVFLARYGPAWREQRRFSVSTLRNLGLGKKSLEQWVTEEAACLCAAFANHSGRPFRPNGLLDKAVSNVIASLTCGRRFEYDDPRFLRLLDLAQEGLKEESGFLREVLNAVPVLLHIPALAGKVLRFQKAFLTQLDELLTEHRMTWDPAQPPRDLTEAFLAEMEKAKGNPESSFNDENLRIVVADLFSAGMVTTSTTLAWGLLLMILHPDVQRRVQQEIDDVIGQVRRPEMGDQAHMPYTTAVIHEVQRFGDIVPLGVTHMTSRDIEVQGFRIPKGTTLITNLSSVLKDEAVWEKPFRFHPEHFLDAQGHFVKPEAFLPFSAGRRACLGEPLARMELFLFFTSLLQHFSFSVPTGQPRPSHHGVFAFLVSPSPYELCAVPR

Work on `CCCCOc1cccc(C(F)(F)CN(CCCOC)CC(=O)N(C)C)c1` [Example 3-2, 2-{[2,2-Difluoro-2-(3-butoxyphenyl)-ethyl]-(3-methoxypropyl)-amino}-N,N-dimethyl-acetamide, hydrochloride] yielded an IC50 [1] of over 40000 nM and an IC50 [2] of 2400 nM.
